Structures are written as SMILES. Where two headings read alike, the source gives them in different places.

As a reminder, the IC50 is the concentration at which inhibition is half-maximal.

The subject of series [1] is CSF-1R. More on the design: method as in PMID 22935731. To be noted: CSF-1R cellular phosphorylation, ligand stimulated; read-out: Cellular PD marker IC50 (95% confidence limits); cited from earlier work.
In series [2] the test system is Aurora C. Also noted: method as in PMID 22935731. To be noted: 1 mM ATP; read-out: Biochemical IC50 (95% confidence limits); cited from earlier work.
The subject of series [3] is c-KIT. More on the design: method as in PMID 22935731. The note with it: KIT cellular phosphorylation, ligand stimulated; read-out: Cellular PD marker IC50 (95% confidence limits); cited from earlier work.
Series [4] can be described thus: Dose escalation: dose-limiting toxicities and MTD. It is filed as in vivo. The source says:
Dose escalation was first conducted in Arm I and subsequently in Arms II and III. […] The pre-specified DLT criteria included any of the following events graded according to the Common Terminology Criteria for Adverse Events (CTCAE) version 4.0 considered ‘possibly’ or ‘probably’ related to the administration of ilorasertib in cycle 1: grade 4 absolute neutrophil count (ANC) decrease for >7 days or grade ≥ 3 ANC decrease with fever; grade 4 platelet count decrease; grade ≥ 3 proteinuria; grade 4 infusion reaction; grade ≥ 3 asthenia/fatigue; grade 3 nausea/vomiting for ≥48 h or diarrhoea for ≥72 h despite maximum supportive care; grade ≥ 2 neurotoxicity; unexpected grade 2 toxicity which required dose modification or delay of ≥1 week. Given the known adverse effects of VEGFR2 inhibition, specific criteria for hypertension were included: >150/100 mm Hg despite 2 weeks of clinically appropriate intervention, or severe hypertension at any blood pressure reading defined as systolic >200 mm Hg or diastolic > 110 mm Hg, or symptomatic hypertension at any reading; and for decline in left ventricular ejection fraction included: absolute decline >20% from baseline and/or a reduction to <39%. Except for the above categories, all grade ≥ 3 adverse events (AEs) without a definitive alternative etiology were also considered DLTs. AEs detected or worsened in cycle 2 and beyond could be incorporated into dose-escalation decisions at discretion of the investigators and study team.
The MTD was to be continually re-estimated by a logistic regression model as the dose at which the predicted DLT rate would be 30%. For the three arms, dose-escalation decisions were made after the patient(s) in a cohort completed dosing in cycle 1.
In Arm I, dosing commenced at 10 mg PO QD and was escalated to 180 mg PO QD. This initial starting dose was calculated using 1/6 of the highest non-severely toxic dose in dogs converted to human equivalent dose, using body surface area scaling and assuming a 60-kg human. Because of uncertainty of food effects on pharmacokinetics and the […] schedule, treatment was administered in a fasted state. […] Enrolment to Arm I was discontinued, on the basis of the protocol-specified continual reassessment method on which MTD was to be determined. […] This schedule was selected due to the anticipated lower maximum observed plasma concentration (Cmax) and greater total exposure, and the possibility that tolerability would be improved under these conditions. Dose escalation proceeded in Arm II, starting at 40 mg PO BID, and stopped at the 340-mg PO BID dose, since this dose met the protocol criteria for exceeding the MTD. The first dose was administered in the fasted state. The second dose of the treatment day was administered at least 4 h after a small meal. […]

Series [5] has as its system CSF-1R. More on the design: method as in PMID 22935731. To be noted: 1 mM ATP; read-out: Biochemical IC50 (95% confidence limits); cited from earlier work.
Series [6] has as its system FLT-3. Also noted: method as in PMID 22935731. To be noted: FLT-3 constitutively phosphorylated in SEM cells, 60 min exposure; read-out: Cellular PD marker IC50 (95% confidence limits); cited from earlier work.
In series [7] the test system is VEGFR2. Also noted: method as in PMID 22935731. To be noted: cited from earlier work.
On the set-up of series [8]: method as in PMID 25933833. To be noted: doses above 80 mg PO; data from haematologic malignancies study i.v. arm; cited from earlier work.
Series [9] concerns Aurora kinase B. The series is described as follows: pHH3 immunohistochemistry in skin punch biopsies. It is filed as in vivo, human. To be noted: 8 mg i.v. and 60‒340 mg PO BID.
Series [10] concerns PDGFR-β. Also noted: method as in PMID 22935731. The note with it: PDGFR-β cellular phosphorylation, ligand stimulated; read-out: Cellular PD marker IC50 (95% confidence limits); cited from earlier work.

As for `Nc1ncc(-c2cnn(CCO)c2)c2scc(-c3ccc(NC(=O)Nc4cccc(F)c4)cc3)c12` [ilorasertib, Ilorasertib], the IC50 is […] in series [1]; 1 nM in series [2]; 45 nM in series [3]; […] in series [5]; […] in series [6]; 5 nM in [7] (VEGFR2 cellular phosphorylation, ligand stimulated, read-out: Cellular PD marker IC50 (95% confidence limits)). Also, in series [10], the IC50 was 11 nM. The “Dose that met the protocol criteria for exceeding the MTD” value in series [4] (Arm I, PO QD) is reported as 180 mg; in [4] (Arm II, PO BID) it was 340 mg. The “Patients who experienced DLTs” value in [4] (human, in vivo, 1 cycle) is 10%. In addition, the “Total number of DLTs” value in [4] (in vivo) is “ten”. For the same molecule, in series [7] (cellular assays), the “Potency of VEGFR2 inhibition relative to Aurora kinase B” value is “two- to five-fold more potent”. In addition, the “Absolute oral bioavailability (estimate)” value in series [8] was […]. In addition, the “pHH3 in epidermis with increasing exposure” value in [9] is “dose-dependent decreases of pHH3”.
